From PubChem BioAssay (NCI)
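A five-concentration, 48-hour dose response in 96-well plates underlies each endpoint, interpolated linearly between surrounding concentrations. GI50 is the concentration that inhibits growth by half. TGI marks complete inhibition of growth.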

Key:
Assay in all cases: NCI tumour cell line growth inhibition, 48 h; in the data active = GI50 below about 0.43 µM; inactive = the rest
786-0 renal = tested on: 786-0 renal
A498 renal = tested on: A498 renal
A549 NSCLC = tested on: A549 NSCLC
BT-549 breast = tested on: BT-549 breast
CAKI-1 renal = tested on: CAKI-1 renal
CCRF-CEM leukemia = tested on: CCRF-CEM leukemia
COLO 205 colon = tested on: COLO 205 colon
DU-145 prostate = tested on: DU-145 prostate
EKVX NSCLC = tested on: EKVX NSCLC
HCC-2998 colon = tested on: HCC-2998 colon
HCT-116 colon = tested on: HCT-116 colon
HCT-15 colon = tested on: HCT-15 colon
HL-60(TB) leukemia = tested on: HL-60(TB) leukemia
HOP-62 NSCLC = tested on: HOP-62 NSCLC
HOP-92 NSCLC = tested on: HOP-92 NSCLC
HS 578T breast = tested on: HS 578T breast
HT29 colon = tested on: HT29 colon
IGROV1 ovarian = tested on: IGROV1 ovarian
K-562 leukemia = tested on: K-562 leukemia
KM12 colon = tested on: KM12 colon
LOX IMVI melanoma = tested on: LOX IMVI melanoma
M14 melanoma = tested on: M14 melanoma
MALME-3M melanoma = tested on: MALME-3M melanoma
MCF7 breast = tested on: MCF7 breast
MDA-MB-231 breast = tested on: MDA-MB-231 breast
MDA-MB-435 = tested on: MDA-MB-435
MDA-MB-468 breast = tested on: MDA-MB-468 breast
MOLT-4 leukemia = tested on: MOLT-4 leukemia
NCI-H23 lung = tested on: NCI-H23 lung
NCI-H460 lung = tested on: NCI-H460 lung
NCI-H522 lung = tested on: NCI-H522 lung
NCI/ADR-RES ovarian = tested on: NCI/ADR-RES ovarian
OVCAR-3 ovarian = tested on: OVCAR-3 ovarian
OVCAR-4 ovarian = tested on: OVCAR-4 ovarian
OVCAR-5 ovarian = tested on: OVCAR-5 ovarian
OVCAR-8 ovarian = tested on: OVCAR-8 ovarian
PC-3 prostate = tested on: PC-3 prostate
RPMI-8226 leukemia = tested on: RPMI-8226 leukemia
RXF 393 renal = tested on: RXF 393 renal
SF-268 CNS = tested on: SF-268 CNS
SF-295 CNS = tested on: SF-295 CNS
SF-539 CNS = tested on: SF-539 CNS
SK-MEL-2 melanoma = tested on: SK-MEL-2 melanoma
SK-MEL-28 melanoma = tested on: SK-MEL-28 melanoma
SK-MEL-5 melanoma = tested on: SK-MEL-5 melanoma
SK-OV-3 ovarian = tested on: SK-OV-3 ovarian
SN12C renal = tested on: SN12C renal
SNB-19 CNS = tested on: SNB-19 CNS
SNB-75 CNS = tested on: SNB-75 CNS
SR leukemia = tested on: SR leukemia
SW-620 colon = tested on: SW-620 colon
T-47D breast = tested on: T-47D breast
TK-10 renal = tested on: TK-10 renal
U251 CNS = tested on: U251 CNS
UACC-257 melanoma = tested on: UACC-257 melanoma
UACC-62 melanoma = tested on: UACC-62 melanoma
UO-31 renal = tested on: UO-31 renal

COc1ccc(-c2nc3ccc(-c4nnc(SCc5ccccc5)o4)cc3[nH]2)cc1OC
79.9 µM: TGI (NCI-H23 lung)
> 100 µM: TGI (A498 renal) | TGI (A549 NSCLC) | TGI (BT-549 breast) | TGI (CAKI-1 renal) | TGI (CCRF-CEM leukemia) | TGI (COLO 205 colon) | TGI (DU-145 prostate) | TGI (EKVX NSCLC) | TGI (HCC-2998 colon) | TGI (HCT-116 colon) | TGI (HCT-15 colon) | TGI (HL-60(TB) leukemia) | TGI (HS 578T breast) | TGI (HT29 colon) | TGI (IGROV1 ovarian) | TGI (K-562 leukemia) | TGI (KM12 colon) | TGI (LOX IMVI melanoma) | TGI (M14 melanoma) | TGI (MCF7 breast) | TGI (MDA-MB-435) | TGI (MOLT-4 leukemia) | TGI (NCI-H460 lung) | TGI (NCI-H522 lung) | TGI (NCI/ADR-RES ovarian) | TGI (OVCAR-5 ovarian) | TGI (OVCAR-8 ovarian) | TGI (PC-3 prostate) | TGI (RPMI-8226 leukemia) | TGI (RXF 393 renal) | TGI (SF-268 CNS) | TGI (SF-295 CNS) | TGI (SF-539 CNS) | TGI (SK-MEL-2 melanoma) | TGI (SK-MEL-28 melanoma) | TGI (SK-MEL-5 melanoma) | TGI (SK-OV-3 ovarian) | TGI (SN12C renal) | TGI (SNB-19 CNS) | TGI (SR leukemia) | TGI (SW-620 colon) | TGI (T-47D breast) | TGI (UACC-257 melanoma) | TGI (UO-31 renal)
43.8 µM: TGI (UACC-62 melanoma)
94.6 µM: TGI (HOP-92 NSCLC)
7.27 µM: TGI (SNB-75 CNS)
38.6 µM: TGI (MDA-MB-468 breast)
20.4 µM: TGI (U251 CNS)
23.2 µM: TGI (HOP-62 NSCLC) | TGI (MDA-MB-231 breast)
40.2 µM: TGI (786-0 renal)
46.7 µM: TGI (TK-10 renal)
12.3 µM: TGI (OVCAR-4 ovarian)
88.9 µM: TGI (OVCAR-3 ovarian)
11.5 µM: TGI (MALME-3M melanoma)
inactive: GI50 (786-0 renal) 5.88 µM | GI50 (A498 renal) > 100 µM | GI50 (A549 NSCLC) 4.8 µM | GI50 (BT-549 breast) 21.3 µM | GI50 (CAKI-1 renal) > 100 µM | GI50 (CCRF-CEM leukemia) 16.7 µM | GI50 (COLO 205 colon) 38 µM | GI50 (DU-145 prostate) 9.71 µM | GI50 (EKVX NSCLC) 24.9 µM | GI50 (HCC-2998 colon) 57 µM | GI50 (HCT-116 colon) 8.32 µM | GI50 (HCT-15 colon) 13.8 µM | GI50 (HL-60(TB) leukemia) 57.5 µM | GI50 (HOP-62 NSCLC) 3.88 µM | GI50 (HOP-92 NSCLC) 4.17 µM | GI50 (HS 578T breast) 3.5 µM | GI50 (HT29 colon) 16.2 µM | GI50 (IGROV1 ovarian) 36 µM | GI50 (K-562 leukemia) 28.3 µM | GI50 (KM12 colon) > 100 µM | GI50 (LOX IMVI melanoma) 4.74 µM | GI50 (M14 melanoma) 26.5 µM | GI50 (MALME-3M melanoma) 3.18 µM | GI50 (MCF7 breast) 13.8 µM | GI50 (MDA-MB-231 breast) 4.28 µM | GI50 (MDA-MB-435) 21 µM | GI50 (MDA-MB-468 breast) 7.89 µM | GI50 (MOLT-4 leukemia) 27.8 µM | GI50 (NCI-H23 lung) 11 µM | GI50 (NCI-H460 lung) 5.67 µM | GI50 (NCI-H522 lung) 23 µM | GI50 (NCI/ADR-RES ovarian) 11.1 µM | GI50 (OVCAR-3 ovarian) 4.73 µM | GI50 (OVCAR-4 ovarian) 3.08 µM | GI50 (OVCAR-5 ovarian) 32.4 µM | GI50 (OVCAR-8 ovarian) 5.6 µM | GI50 (PC-3 prostate) 19.8 µM | GI50 (RPMI-8226 leukemia) 21.7 µM | GI50 (RXF 393 renal) 3.6 µM | GI50 (SF-268 CNS) 32.7 µM | GI50 (SF-295 CNS) 5.54 µM | GI50 (SF-539 CNS) 6.54 µM | GI50 (SK-MEL-2 melanoma) > 100 µM | GI50 (SK-MEL-28 melanoma) 22 µM | GI50 (SK-MEL-5 melanoma) 7.88 µM | GI50 (SK-OV-3 ovarian) > 100 µM | GI50 (SN12C renal) 7.15 µM | GI50 (SNB-19 CNS) > 100 µM | GI50 (SNB-75 CNS) 2.24 µM | GI50 (SR leukemia) 6.45 µM | GI50 (SW-620 colon) 17 µM | GI50 (T-47D breast) 8.53 µM | GI50 (TK-10 renal) 8.62 µM | GI50 (U251 CNS) 4.72 µM | GI50 (UACC-257 melanoma) 56.4 µM | GI50 (UACC-62 melanoma) 7.2 µM | GI50 (UO-31 renal) 57.4 µM
